The structures appear in SMILES notation.

In one series the test system is Lewis rats. In words: Toxicity / body weight of recipients (Example 1). The format is in vivo. The following applies: when FK506 (0.3 mg/kg BW) was added, 12 days follow up. The protocol: (§1) In this study, recipients were administered the following immunosuppressive drugs: anti-CD40L mAb AH.F5 (Biogen, Inc., Cambridge, Mass., U.S.A.; 12 mg/kg BW, administered i.p. on day—1, 0, 1, 7, and then twice weekly); non-depleting anti-CD4 mAb RIB 5/2 (20 mg/kg BW, administered i.p. on day—1, 0, 1, 2, 3, 5, and then twice weekly); Ha4/8, a non-specific control to anti-CD40L (12 mg/kg BW, administered i.p. on day—1, 0, 1, 7, and then twice weekly); and FK-506 (Prograf, Fujisawa, Inc.; diluted to 1.25 mg/ml in sterile water, 0.3 mg/kg BW, administered i.m. daily from day—2, i.e., 2 days prior to transplant).
Control animals increased on average 15% in weight. All antibody treated animals (alone or in combination, but without FK506) increased weight parallel to untreated controls. […] This toxicity is significant, considering that the follow up was only 12 days and that the dose of FK506 (0.3 mg/kg BW) is equal or lower than in studies reporting no toxicity.

For series [1], the system named is pig islet xenograft in Lewis rats. The experiment in a line: Immunohistochemical analysis of pig islet xenograft, non-diabetic recipients (Example 1). Format: in vivo. Also noted: key to Insulin staining of graft: 0 = absent; + = single cell only; ++ = cell groups; +++ = large cell groups; key to OX33 (B cells) leukocytic infiltration (IHC) / ED1 (CD68) leukocytic infiltration (IHC) / CD3 (Tcells) leukocytic infiltration (IHC) / CD8 leukocytic infiltration (IHC) / CD4 leukocytic infiltration (IHC): 0 = absent; + = single or few; ++ = moderate; +++ = plenty. The following applies: non-diabetic Lewis rats, 2,000 IE pig islets, day +12 post transplant.
From the text: Pancreata were removed from donor outbred female pigs, >2 years old, by standard surgical technique. Following removal, pancreata were perfused with Liberase HI (Roche Diagnostics Corp., Indianapolis, Ind., U.S.A., Cat. No. 1666720) for intraductal distension. Islet cells were dissociated from the perfused pancreata by the automated method. Cleaved islets were separated from non-islet tissue by continuous OptiPrep gradients (Accurate Chemical and Scientific Corp., Westbury, N.Y., U.S.A., Cat. No. AN-1030061) on a COBE 2991 cell separator (Gambro BCT International, Lakewood, Colo., U.S.A.). The resulting free floating, purified islet cells were cultured in M199 medium supplemented with 20% donor pig serum for 48 hours at 37° C.
Transplantation was conducted by standard surgical technique. Briefly, the recipient animals, non-diabetic inbred male Lewis rats weighing 250-270 grams, were anesthetized with Telazol 0.20 mg/kg BW, administered i.m. In addition, the analgesic buprinorphine was administered s.c. to the recipient animals. Transplantation was conducted by making a left flank incision on the recipient, into which 2,000 donor islet equivalents (IE) were injected under the left kidney capsule via PE-50 tubing according to standard procedure.
as §1
Animals were sacrificed by intracardiac exsanguination after ether anesthesia on day +12 post transplant for histological analysis of the graft. Kidneys bearing xenografts were harvested, snap frozen in liquid nitrogen and stored at −70° C.
The following primary Abs were used for immunohistochemical analysis: W3/24 (anti-CD4; available from Pharmingen) W3/13 (anti-CD3; available from Pharmingen); OX-8 (anti-CD8; available from Pharmingen); NK1.2.3 (anti-NK cell; available from Pharmingen); OX-33 (anti-B cell; available from Serotec); ED1 (anti-CD68/macrophages; available from Serotec); and insulin from Dako. The immunohistochemical analysis was visualized by an avidin-biotin-peroxidase complex method and AEC as chromogen. In the case of a positive immunoreaction, a red-brown precipitate developed.

Turning to `C=CC[C@@H]1/C=C(\C)C[C@H](C)C[C@H](OC)[C@H]2O[C@@](O)(C(=O)C(=O)N3CCCC[C@H]3C(=O)O[C@H](/C(C)=C/[C@@H]3CC[C@@H](O)[C@H](OC)C3)[C@H](C)[C@@H](O)CC1=O)[C@H](C)C[C@@H]2OC` [FK, FK-506], in the series on Lewis rats, the body weight lost entry was “around 5%”. Besides, in series [1], the “CD3 (Tcells) leukocytic infiltration (IHC)” value is listed as “++”, the “CD4 leukocytic infiltration (IHC)” value was “++”, the “CD8 leukocytic infiltration (IHC)” value was “+” and the “ED1 (CD68) leukocytic infiltration (IHC)” value was “+”. In addition, in series [1], the “Insulin staining of graft” value is “++” and the “OX33 (B cells) leukocytic infiltration (IHC)” value is given as “+”.

These data come from US20030170239A1, “Immunotherapeutic method to prevent islet cell rejection” (priority 2000, published 2003).
